Experimental data published in ChEMBL document CHEMBL3399947, “Structure activity relationship of selective GABA uptake inhibitors” (Bioorg Med Chem, 2015).

Tests used:
Type in all cases: cell-based
[1] = target: T1, GABA transporter 3 (Mus musculus, UniProt P31649); assay: Inhibition of mouse mGAT3 expressed in HEK293 cells assessed as inhibition of [3H]GABA uptake after 3 mins incubation by TopCount microplate scintillation counting analysis
T1 sequence (P31649 whole entry): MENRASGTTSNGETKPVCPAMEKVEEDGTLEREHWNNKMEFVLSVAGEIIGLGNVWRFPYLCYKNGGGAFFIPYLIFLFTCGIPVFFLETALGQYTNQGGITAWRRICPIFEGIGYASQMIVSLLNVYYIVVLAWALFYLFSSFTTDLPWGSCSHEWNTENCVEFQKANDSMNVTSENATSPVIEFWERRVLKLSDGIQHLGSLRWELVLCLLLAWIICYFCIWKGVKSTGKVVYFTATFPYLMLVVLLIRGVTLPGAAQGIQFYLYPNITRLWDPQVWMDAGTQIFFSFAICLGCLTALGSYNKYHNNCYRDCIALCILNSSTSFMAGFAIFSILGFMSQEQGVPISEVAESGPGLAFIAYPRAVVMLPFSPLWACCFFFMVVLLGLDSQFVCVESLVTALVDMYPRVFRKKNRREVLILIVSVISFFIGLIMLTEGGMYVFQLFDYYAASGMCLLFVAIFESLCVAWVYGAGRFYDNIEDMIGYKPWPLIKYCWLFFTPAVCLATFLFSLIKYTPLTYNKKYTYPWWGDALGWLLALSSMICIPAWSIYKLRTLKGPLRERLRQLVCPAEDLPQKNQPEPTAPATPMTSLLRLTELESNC

[2] = target: T2, GABA transporter 2 (Mus musculus, UniProt P31651); assay: Inhibition of mouse mGAT2 expressed in HEK293 cells assessed as inhibition of [3H]GABA uptake after 3 mins incubation by TopCount microplate scintillation counting analysis; settings: read-out: IC50
T2 sequence (P31651 whole entry): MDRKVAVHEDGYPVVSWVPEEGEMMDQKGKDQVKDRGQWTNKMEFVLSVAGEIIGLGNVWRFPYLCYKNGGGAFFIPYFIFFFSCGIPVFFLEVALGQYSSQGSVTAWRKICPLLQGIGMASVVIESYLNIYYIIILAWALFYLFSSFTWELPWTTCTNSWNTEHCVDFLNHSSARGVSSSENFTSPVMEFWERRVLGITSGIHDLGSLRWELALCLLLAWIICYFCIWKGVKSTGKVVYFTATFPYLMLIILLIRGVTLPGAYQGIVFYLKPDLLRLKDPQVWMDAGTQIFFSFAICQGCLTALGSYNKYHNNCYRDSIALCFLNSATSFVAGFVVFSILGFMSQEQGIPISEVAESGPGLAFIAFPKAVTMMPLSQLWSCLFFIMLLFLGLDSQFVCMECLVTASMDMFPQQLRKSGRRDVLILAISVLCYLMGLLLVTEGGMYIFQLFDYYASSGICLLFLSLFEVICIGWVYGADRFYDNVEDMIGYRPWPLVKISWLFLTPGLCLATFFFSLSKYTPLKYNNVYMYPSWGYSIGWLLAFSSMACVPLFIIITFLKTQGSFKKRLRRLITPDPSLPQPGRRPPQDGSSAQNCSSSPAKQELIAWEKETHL

[3] = target: T3, GABA transporter 4 (Mus musculus, UniProt P31650); assay: Inhibition of mouse mGAT4 expressed in HEK293 cells assessed as inhibition of [3H]GABA uptake after 3 mins incubation by TopCount microplate scintillation counting analysis; settings: read-out: IC50
T3 sequence (P31650 whole entry): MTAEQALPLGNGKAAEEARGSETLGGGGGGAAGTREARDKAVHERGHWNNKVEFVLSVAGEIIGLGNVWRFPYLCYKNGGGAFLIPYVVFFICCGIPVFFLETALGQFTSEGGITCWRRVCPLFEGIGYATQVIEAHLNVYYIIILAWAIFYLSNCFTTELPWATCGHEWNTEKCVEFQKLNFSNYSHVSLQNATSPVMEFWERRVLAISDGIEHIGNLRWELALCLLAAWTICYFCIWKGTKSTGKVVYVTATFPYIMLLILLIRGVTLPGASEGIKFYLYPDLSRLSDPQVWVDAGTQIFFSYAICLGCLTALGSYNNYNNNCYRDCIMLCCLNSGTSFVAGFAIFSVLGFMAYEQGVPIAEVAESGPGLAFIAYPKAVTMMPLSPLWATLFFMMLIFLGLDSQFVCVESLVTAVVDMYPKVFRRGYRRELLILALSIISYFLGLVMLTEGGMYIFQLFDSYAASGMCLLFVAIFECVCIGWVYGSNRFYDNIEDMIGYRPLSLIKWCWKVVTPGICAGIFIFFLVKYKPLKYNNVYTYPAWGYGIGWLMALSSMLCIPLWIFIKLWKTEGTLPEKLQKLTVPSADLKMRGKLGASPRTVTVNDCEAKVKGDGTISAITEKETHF

[4] = target: Sodium- and chloride-dependent GABA transporter 1 (Mus musculus, UniProt P31648); assay: Inhibition of mouse mGAT1 expressed in HEK293 cells assessed as inhibition of [3H]GABA uptake after 3 mins incubation by TopCount microplate scintillation counting analysis

Structure (SMILES)	IC50 ([1]; read-out: IC50)	IC50 [2]	IC50 [3]	IC50 ([1]; read-out: pIC50 (converted))	IC50 ([4]; read-out: IC50)	IC50 ([4]; read-out: pIC50 (converted))
COc1ccccc1C1(O)CCN(CCCn2c3ccccc3c3ccccc32)CC1	41 µM	1.4 µM	–	–	–	–
CCOC(=O)[C@H]1CCCC[C@H]1N(C)CCC=C(c1sccc1C)c1sccc1C	654 µM	201 µM	1220 µM	646 µM	604 µM	–
CN(CCC=C1c2ccccc2CCc2ccccc21)[C@@H]1CCCC[C@@H]1CO	153 µM	50 µM	171 µM	–	286 µM	–
CN(CCOC(c1ccc(C(F)(F)F)cc1)c1ccc(C(F)(F)F)cc1)[C@H]1CCCC[C@H]1CO	328 µM	133 µM	181 µM	–	359 µM	–
CN(CCOC(c1ccc(C(F)(F)F)cc1)c1ccc(C(F)(F)F)cc1)[C@@H]1CCCC[C@@H]1CO	119 µM	63.3 µM	866 µM	–	223 µM	–
CCOC(=O)[C@@H]1CCCC[C@@H]1N(C)CCC=C(c1sccc1C)c1sccc1C	602 µM	217 µM	835 µM	–	801 µM	–
CCOC(=O)[C@H]1CCCC[C@H]1N(C)CCON=C(c1ccccc1)c1ccccc1	1050 µM	114 µM	836 µM	–	1240 µM	–
CCOC(=O)[C@@H]1CCCC[C@@H]1N(C)CCC=C1c2ccccc2CCc2ccccc21	1340 µM	375 µM	1670 µM	–	1370 µM	–
CCOC(=O)[C@H]1CCCC[C@H]1N(C)CCC=C1c2ccccc2CCc2ccccc21	1400 µM	444 µM	> 1000 µM	1740 µM	1190 µM	–
CCOC(=O)[C@@H]1CCCC[C@@H]1N(C)CCOC(c1ccc(C(F)(F)F)cc1)c1ccc(C(F)(F)F)cc1	652 µM	417 µM	1470 µM	–	508 µM	–
CCOC(=O)[C@H]1CCCC[C@H]1N(C)CCOC(c1ccc(C(F)(F)F)cc1)c1ccc(C(F)(F)F)cc1	511 µM	325 µM	1210 µM	–	425 µM	–
CNCCC=C(c1sccc1C)c1sccc1C	137 µM	179 µM	254 µM	–	160 µM	–
CNCCON=C(c1ccccc1)c1ccccc1	1050 µM	430 µM	829 µM	–	> 2000 µM	–
CNCCOC(c1ccc(C(F)(F)F)cc1)c1ccc(C(F)(F)F)cc1	58 µM	190 µM	143 µM	–	163 µM	–
Cc1ccsc1C(=CCCNCCC(=O)O)c1sccc1C	796 µM	504 µM	1730 µM	–	171 µM	–
O=C(O)CCNCCON=C(c1ccccc1)c1ccccc1	290 µM	> 1000 µM	310 µM	–	6.99 µM	–
O=C(O)CCNCCC=C1c2ccccc2CCc2ccccc21	3250 µM	1380 µM	4060 µM	–	281 µM	–
Cc1ccsc1C(=CCCN(C)CCC(=O)O)c1sccc1C	343 µM	937 µM	1280 µM	–	966 µM	–
CN(CCON=C(c1ccccc1)c1ccccc1)CCC(=O)O	674 µM	7520 µM	768 µM	–	9.7 µM	–
CN(CCC=C1c2ccccc2CCc2ccccc21)CCC(=O)O	1050 µM	735 µM	1700 µM	–	77.7 µM	–
CN(CCCP(=O)(O)O)CCON=C(c1ccccc1)c1ccccc1	> 1000 µM	> 1000 µM	> 1000 µM	–	> 1000 µM	–

Structure (SMILES)	IC50 ([1]; read-out: IC50)	IC50 [2]	IC50 [3]	IC50 ([1]; read-out: pIC50 (converted))	IC50 ([4]; read-out: IC50)	IC50 ([4]; read-out: pIC50 (converted))
CN(CCC=C1c2ccccc2CCc2ccccc21)CCCP(=O)(O)O	> 1000 µM	> 1000 µM	> 1000 µM	–	> 1000 µM	–
CN(CCCS(=O)(=O)O)CCON=C(c1ccccc1)c1ccccc1	> 1000 µM	> 1000 µM	> 1000 µM	–	828 µM	–
Cc1ccsc1C(=CCCn1cc(CNCCC(=O)O)nn1)c1sccc1C	> 2000 µM	> 2000 µM	> 2000 µM	–	> 2000 µM	–
O=C(O)CCNCc1cn(CCOC(c2ccc(C(F)(F)F)cc2)c2ccc(C(F)(F)F)cc2)nn1	> 1000 µM	> 1000 µM	> 1000 µM	–	> 1000 µM	–
Cc1ccsc1C(=CCCN1CCNCC(C(=O)O)C1)c1sccc1C (centres undefined)	844 µM	370 µM	1740 µM	–	43.8 µM	–
CCN1CCN(CCC=C(c2sccc2C)c2sccc2C)CC(C(=O)O)C1 (centres undefined)	1700 µM	318 µM	> 1000 µM	–	483 µM	–
CCC(C)N1CCN(CCC=C(c2sccc2C)c2sccc2C)CC(C(=O)O)C1 (centres undefined)	> 1000 µM	160 µM	> 1000 µM	–	> 1000 µM	–
CCCCN1CCN(CCC=C(c2sccc2C)c2sccc2C)CC(C(=O)O)C1 (centres undefined)	650 µM	80.6 µM	681 µM	–	185 µM	501 µM
C=CCN1CCN(CCC=C(c2sccc2C)c2sccc2C)CC(C(=O)O)C1 (centres undefined)	1100 µM	160 µM	563 µM	–	549 µM	–
Cc1ccsc1C(=CCCN1CCN(Cc2ccccc2)CC(C(=O)O)C1)c1sccc1C (centres undefined)	> 1000 µM	309 µM	> 1000 µM	–	> 1000 µM	–
Cc1ccsc1C(=CCCN1CCN(CCO)CC(C(=O)O)C1)c1sccc1C (centres undefined)	> 1000 µM	> 1000 µM	> 1000 µM	–	> 1000 µM	–
Cc1ccsc1C(=CCCN1CCN(C(=N)N)CC(C(=O)O)C1)c1sccc1C (centres undefined)	> 1000 µM	> 1000 µM	> 1000 µM	–	> 1000 µM	–
O=C(O)C1CNCCN(CCON=C(c2ccccc2)c2ccccc2)C1 (centres undefined)	> 1000 µM	> 1000 µM	> 1000 µM	–	667 µM	5250 µM
CCN1CCN(CCON=C(c2ccccc2)c2ccccc2)CC(C(=O)O)C1 (centres undefined)	> 1000 µM	> 1000 µM	> 1000 µM	–	> 1000 µM	–
CCCCN1CCN(CCON=C(c2ccccc2)c2ccccc2)CC(C(=O)O)C1 (centres undefined)	> 1000 µM	> 1000 µM	> 1000 µM	–	> 1000 µM	–
Cc1ccsc1C(=CCCN1CCN(CCON=C(c2ccccc2)c2ccccc2)CC(C(=O)O)C1)c1sccc1C (centres undefined)	> 1000 µM	> 1000 µM	> 1000 µM	–	> 1000 µM	–
O=C(O)C1CN(CCO)CCN(CCON=C(c2ccccc2)c2ccccc2)C1 (centres undefined)	> 1000 µM	> 1000 µM	> 1000 µM	–	> 1000 µM	–
COc1ccc(C(OCCN2CCC[C@H](C(=O)O)C2)(c2ccc(OC)cc2)c2ccc(OC)cc2)cc1	–	22 µM	–	–	–	–
CN(CCON=C(c1ccccc1)c1ccccc1)[C@@H]1CCCC[C@H]1C(=O)O (racemic)	> 2000 µM	1100 µM	> 2000 µM	–	–	–
Cc1ccsc1C(=CCCN1CCC[C@@H](C(=O)O)C1)c1sccc1C [TIAGABINE]	> 300 µM	–	–	–	–	–
